From EP4702986A1, “POLYPEPTIDE AND USE THEREOF” (Biocells (Beijing) Biotech Co., Ltd., priority 2023, dated 2024)
Like-named read-outs stand apart in the source and are kept apart here. Numbered stars: 1 amine (or outer) side, 2 acyl side, 3 side chain; on linkers, the order of the positions; unused ones are H or OH. Side chains are listed from the residue outwards. Ends that are not written are not given here. Peptide text beside a SMILES is read from it. * marks the point of attachment. X1 = C[C@H](NC(=O)[C@@H]1CCCN1C(=O)[C@@H](N)CSC1CC(=O)N(CCC(=O)*)C1=O)C(=O)N[C@@H](CCCCN)C(=O)O; C18 diacid = O=C(O)CCCCCCCCCCCCCCCCC(=O)*; γGlu = O=C(O)[C@H](CCC(=O)[*:2])N[*:1]; Fumaroyl = O=C(O)/C=C/C(=O)*; Suc = O=C(CCC(=O)[*:2])[*:1]; Lauroyl = CCCCCCCCCCCC(=O)*; AEEA = NCCOCCOCC(=O)O

Experiments:
human ETA receptor = target: T1, human ETA receptor (Homo sapiens, UniProt P25101); experiment: Selectivity of polypeptides on human ETA receptor (IP-One Gq kit, % of positive control ET1); assay type: cell-based
T1 construct: expressed in transfected cells; host or cells: 293T-17 cells, transient transfection
T1 sequence (P25101 21-427): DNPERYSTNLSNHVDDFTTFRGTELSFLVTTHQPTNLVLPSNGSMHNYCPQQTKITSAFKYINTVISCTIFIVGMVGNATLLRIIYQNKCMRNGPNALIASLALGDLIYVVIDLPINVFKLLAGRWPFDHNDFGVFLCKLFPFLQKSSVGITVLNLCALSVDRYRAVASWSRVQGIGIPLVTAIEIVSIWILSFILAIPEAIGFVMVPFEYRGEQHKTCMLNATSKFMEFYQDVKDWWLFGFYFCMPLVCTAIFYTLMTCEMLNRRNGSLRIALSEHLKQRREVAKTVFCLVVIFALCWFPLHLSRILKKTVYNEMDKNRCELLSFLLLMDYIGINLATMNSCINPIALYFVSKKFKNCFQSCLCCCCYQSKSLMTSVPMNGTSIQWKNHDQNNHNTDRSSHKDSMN
How it was run: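 293T-17 cells transiently transfected with human ETA receptor (48 h), 30,000 cells/well exposed to polypeptides for 1 h at 37°C; IP1 accumulation by HTRF (665/620 nm ratio). Activity given as % of ET1 at the same concentration after PBS-control subtraction.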

[1] = Determination of half-lives of polypeptides (plasma, LC-MS); details: for half-life: C57 BL/6, mouse, plasma, iv; for AUClast 0-30 min: C57 BL/6 mice, i.v., dosage per compound 0.48, 0.96 or 1 mpk
[2] = read-out: hETAR agonist activity, percentage of activity relative to ET1

With `CCCCCCCCCCCC(=O)N[C@@H](CCC(=O)NCCOCCOCC(=O)NCCCC[C@H](NC(=O)[C@H](Cc1c[nH]cn1)NC(=O)[C@H](C)NC(=O)[C@H](Cc1ccccc1)NC(=O)[C@H](Cc1ccc(O)cc1)NC(=O)[C@@H](NC(=O)[C@H](C)NC(=O)[C@H](CCC(=O)O)NC(=O)[C@H](CCC(=O)O)NC(=O)[C@H](CC(=O)O)NC(=O)/C=C/C(=O)O)C(C)C)C(=O)N[C@@H](CC(=O)O)C(=O)N[C@H](C(=O)N[C@H](C(=O)N[C@@H](Cc1c[nH]c2ccccc12)C(=O)O)[C@@H](C)CC)C(C)C)C(=O)O` [BX229-Na] (Fumaroyl-DEEAVYFAHK([AEEA-γGlu-Lauroyl])DVIW-OH) the activation at 100 µM (human ETA receptor; @100µM, read-out: hETAR agonist activity, percentage of activity relative to ET1) was 0.68%.

In the case of `CC[C@H](C)[C@H](NC(=O)[C@H](CC(=O)O)NC(=O)[C@H](CCCCNC(=O)COCCOCCNC(=O)COCCOCCNC(=O)CC[C@H](NC(=O)CCCCCCCCCCCCCCCCC(=O)O)C(=O)O)NC(=O)[C@H](Cc1c[nH]cn1)NC(=O)[C@H](C)NC(=O)[C@H](Cc1ccccc1)NC(=O)[C@H](Cc1ccc(O)cc1)NC(=O)[C@@H](NC(=O)[C@H](C)NC(=O)[C@H](CCC(=O)O)NC(=O)[C@H](CCC(=O)O)NC(=O)[C@H](CC(=O)O)NC(=O)/C=C/C(=O)O)C(C)C)C(=O)N[C@H](C(=O)N[C@@H](Cc1c[nH]c2ccccc12)C(=O)O)[C@@H](C)CC` [BX-34] (Fumaroyl-DEEAVYFAHK([AEEA-AEEA-γGlu-C18 diacid])DIIW-OH), the activation at 0.01 µM (human ETA receptor; [2]) is reported as -23.5%, the activation at 0.1 µM (human ETA receptor; [2]) is reported as -11% and the half-life [1] is reported as 63 min. For the same molecule, the “AUClast 0-30 min” value [1] was 7736 ng·h/mL.

Molecule `CC[C@H](C)[C@H](NC(=O)[C@H](CC(=O)O)NC(=O)[C@H](CCCCNC(=O)COCCOCCNC(=O)CCN1C(=O)CC(SC[C@H](N)C(=O)N2CCC[C@H]2C(=O)N[C@@H](C)C(=O)N[C@@H](CCCCN)C(=O)O)C1=O)NC(=O)[C@H](Cc1c[nH]cn1)NC(=O)[C@H](C)NC(=O)[C@H](Cc1ccccc1)NC(=O)[C@H](Cc1ccc(O)cc1)NC(=O)[C@@H](NC(=O)[C@H](C)NC(=O)[C@H](CCC(=O)O)NC(=O)[C@H](CCC(=O)O)NC(=O)[C@H](CC(=O)O)NC(=O)/C=C/C(=O)O)C(C)C)C(=O)N[C@H](C(=O)N[C@@H](Cc1c[nH]c2ccccc12)C(=O)O)[C@@H](C)CC` (stereo partly shown) [BX-95] (Fumaroyl-DEEAVYFAHK([AEEA-X1])DIIW-OH) has an activation at 10 µM (human ETA receptor; [2]) of -9.81% and an activation at 100 µM (human ETA receptor; [2]) of -7.46%.

Molecule `CCCCCCCCCCCC(=O)N[C@@H](CCC(=O)NCCOCCOCC(=O)NCCCC[C@H](NC(=O)[C@H](Cc1c[nH]cn1)NC(=O)[C@H](C)NC(=O)[C@H](Cc1ccccc1)NC(=O)[C@H](Cc1ccc(O)cc1)NC(=O)[C@@H](NC(=O)[C@H](C)NC(=O)[C@H](CCC(=O)O)NC(=O)[C@H](CCC(=O)O)NC(=O)[C@H](CC(=O)O)NC(=O)/C=C/C(=O)O)C(C)C)C(=O)N[C@@H](CC(=O)O)C(=O)N[C@H](C(=O)N[C@H](C(=O)N[C@@H](Cc1c[nH]c2ccccc12)C(=O)O)[C@@H](C)CC)[C@@H](C)CC)C(=O)O` [BX-225] (Fumaroyl-DEEAVYFAHK([AEEA-γGlu-Lauroyl])DIIW-OH) has an activation at 10 µM (human ETA receptor; [2]) of 0.52%, an activation at 100 µM (human ETA receptor; [2]) of 3.59% and a half-life [1] of 37 min. The “AUClast 0-30 min” value [1] was 4981 ng·h/mL.

With `CC[C@H](C)[C@H](NC(=O)[C@H](CC(=O)O)NC(=O)[C@H](CC(C)C)NC(=O)[C@H](Cc1c[nH]cn1)NC(=O)[C@H](C)NC(=O)[C@H](Cc1ccccc1)NC(=O)[C@H](Cc1ccc(O)cc1)NC(=O)[C@@H](NC(=O)[C@H](C)NC(=O)[C@H](CCC(=O)O)NC(=O)[C@H](CCC(=O)O)NC(=O)[C@H](CC(=O)O)NC(=O)CCC(=O)O)C(C)C)C(=O)N[C@H](C(=O)N[C@@H](Cc1c[nH]c2ccccc12)C(=O)O)[C@@H](C)CC` [IRL1620, reference compound] (Suc-DEEAVYFAHLDIIW-OH) the half-life [1] was < 2.6 min and the “AUClast 0-30 min” value [1] was 130 ng·h/mL.

With “Fum-DEEEVYFAHKDIIW (Fumaroyl-DEEEVYFAHKDIIW) [BX-52]” the “hETAR agonist activity, percentage of activity relative to ET1” value (human ETA receptor; @10nM) was -2.49%@10nM and the “hETAR agonist activity, percentage of activity relative to ET1” value (human ETA receptor; @100nM) was -11.24%@100nM.

For Fum-DEEEVYFAHOrnDIIW [BX-59], the “hETAR agonist activity, percentage of activity relative to ET1” value (human ETA receptor) was -7.67%@100µM and the “hETAR agonist activity, percentage of activity relative to ET1” value (human ETA receptor; @10µM) was -10.61%@10µM.

With “Suc-DE cyclo(CEEC)YFAHKDIIW (Suc-DECEECYFAHKDIIW; not fully specified (bridges); printed as Suc-DE cyclo(CEEC)YFAHKDIIW; also: cyclo(CEEC) in N-terminal extension, bond type not given here) [BX-57]” the “hETAR agonist activity, percentage of activity relative to ET1” value (human ETA receptor) was -10.53%@100µM and the “hETAR agonist activity, percentage of activity relative to ET1” value (human ETA receptor; @10µM) was -29.04%@10µM.
